# Source: US20260166057A1, “1,3,5(10),16-ESTRATETRAEN-3-YL ACETATE FOR USE IN IMPROVING PSYCHOMOTOR OR COGNITIVE PERFORMANCE” (priority 2023, published 2026)
# Like-named read-outs stand apart in the source and are kept apart here.
# Experiments:
# subjects with ADHD = experiment: ETA in ADHD (Example 11); assay type: in vivo, human; conditions: intranasal as in Example 4
# Protocol: In subjects experiencing decreased psychomotor and/or cognitive performance associated with ADHD, a therapeutically effective amount of ETA is administered intranasally as described in Example 4. Psychomotor and cognitive performance improve in this group of subjects.
# healthy male volunteers [1] = experiment: Time Estimation Test (cognitive performance) of the RTTET in mentally fatigued men; conditions: for Time Estimation test improvement: relative to placebo
# healthy male volunteers [2] = experiment: Reaction Time Test (psychomotor performance) of the RTTET in mentally fatigued men; assay type: in vivo, human; conditions: for number of errors: relative to placebo, all three non-control tests; for variability in Reaction Time test: compared to caffeine and placebo; for effect on Reaction Time test compared with caffeine: midnight and 3 a.m. tests (subjects fatigued)
# [3] = system: nasal septal olfactory chemosensory epithelium; experiment: Electrophysiology: depolarization of chemosensory epithelium; design: species or system human
# rats of both sexes = experiment: 7-day intravenous administration to rats of both sexes; assay type: in vivo
# subjects with MDD = experiment: ETA supplementation in MDD subjects already receiving escitalopram (Example 8); assay type: in vivo, human; conditions: ETA added to escitalopram
# Protocol: In subjects experiencing decreased psychomotor and/or cognitive performance in mental fatigue associated with MDD and already receiving treatment with escitalopram, a therapeutically effective amount of ETA is intranasally administered as described in Example 4 as a supplemental or adjunctive treatment. ETA is administered separately from the antidepressant treatment and is given sequentially or proximate in time to situations requiring attention and concentration. […] Psychomotor and cognitive performance improve in this group of subjects.
# [4] = system: subjects with excessive daytime sleepiness; experiment: ETA in mental fatigue associated with excessive daytime sleepiness (Example 6); assay type: in vivo, human; conditions: intranasal as in Example 4
# Source text: (§1) In subjects experiencing decreased psychomotor and/or cognitive performance in mental fatigue associated with excessive daytime sleepiness, a therapeutically effective amount of ETA is intranasally administered as described in Example 4. Psychomotor and cognitive performance improve in this group of subjects.
# rat progestin receptor = rat progestin receptor (Rattus norvegicus, UniProt Q63449); experiment: In vitro agonist/antagonist activity on steroid receptors; assay type: biochemical
# Chain of rat progestin receptor (Q63449 whole entry): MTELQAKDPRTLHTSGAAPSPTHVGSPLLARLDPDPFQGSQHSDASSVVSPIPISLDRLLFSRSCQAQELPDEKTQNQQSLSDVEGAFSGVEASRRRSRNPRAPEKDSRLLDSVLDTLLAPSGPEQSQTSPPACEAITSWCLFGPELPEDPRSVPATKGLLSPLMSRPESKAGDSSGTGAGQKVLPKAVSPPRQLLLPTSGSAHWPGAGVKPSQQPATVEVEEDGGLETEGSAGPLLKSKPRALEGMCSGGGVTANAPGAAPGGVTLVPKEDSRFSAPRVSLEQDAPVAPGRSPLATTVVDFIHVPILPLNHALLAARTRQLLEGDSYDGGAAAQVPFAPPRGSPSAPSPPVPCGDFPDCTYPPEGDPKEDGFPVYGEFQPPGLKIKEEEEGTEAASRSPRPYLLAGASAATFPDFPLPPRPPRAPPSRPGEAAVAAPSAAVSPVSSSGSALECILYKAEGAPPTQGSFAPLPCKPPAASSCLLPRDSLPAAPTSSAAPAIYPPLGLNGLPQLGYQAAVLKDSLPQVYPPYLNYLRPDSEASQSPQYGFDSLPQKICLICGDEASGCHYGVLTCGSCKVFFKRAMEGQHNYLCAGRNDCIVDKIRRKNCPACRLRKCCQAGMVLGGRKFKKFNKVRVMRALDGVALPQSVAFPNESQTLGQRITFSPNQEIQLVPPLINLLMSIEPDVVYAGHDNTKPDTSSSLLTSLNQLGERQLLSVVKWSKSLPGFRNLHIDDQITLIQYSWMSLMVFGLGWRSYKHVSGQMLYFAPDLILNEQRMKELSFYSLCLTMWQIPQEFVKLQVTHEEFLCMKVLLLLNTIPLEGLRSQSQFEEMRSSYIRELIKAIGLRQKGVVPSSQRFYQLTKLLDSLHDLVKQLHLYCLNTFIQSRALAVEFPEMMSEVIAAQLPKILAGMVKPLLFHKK
# male rats = experiment: Intravenous and intranasal administration to male rats; assay type: in vivo; conditions: 600 μg/Kg intravenous, 900 μg/Kg intranasal, 7-day period
# [5] = Onset of effect after nasal administration; assay type: in vivo, human
# Source text: Because of the rapid onset of effect of nasally administered ETA, and its safety, it is expected that ETA may be administered as needed once mental fatigue is sensed, for example immediately a mentally fatigued person senses sleepiness or a symptom of sleepiness (such as excessive yawning, closing the eyes, nodding of the head, etc.) or a decline in psychomotor or cognitive performance, to improve psychomotor and cognitive performance under those circumstances. It is also expected that ETA may be administered prophylactically to improve, or at least prevent the normal decline in, psychomotor and/or cognitive performance in persons who are, or are likely to become, mentally fatigued. Thus, for example, a firefighter, whose work schedule may require him or her to be available continuously for 72 hours even though he/she is allowed to sleep at night when not actually needed, might administer ETA to improve psychomotor and/or cognitive performance when awakened at night and called to fight a fire; or a pilot of an overnight flight, who flies the aircraft during an afternoon takeoff, rests during the overnight cruise portion of the flight, but then flies the aircraft again as it approaches and lands the next morning, might administer ETA to improve psychomotor and/or cognitive performance on rising from rest to perform the approach and landing.
# [6] = system: isolated human nasal olfactory chemosensory neurons; experiment: Electrophysiology: inward currents in isolated chemosensory neurons; assay type: cell-based
# [7] = system: subjects with major depressive disorder; experiment: Supplemental ETA with itruvone antidepressant therapy (Example 9); assay type: in vivo, human; conditions: ETA added to itruvone
# Source text: Itruvone (INN, pregn-4-en-20-yn-3-one) is being developed for the treatment of MDD and is an investigational product not approved by the Food and Drug Administration. The preparation and experimental treatment of MDD with this compound are described, for example, in Monti, U.S. patent Ser. No. 10/322,138, “Treatment of Depressive Disorders,”. Both itruvone and ETA are believed to have a common mechanism of action in terms of activating olfactory chemosensory neurons in the nasal mucosa, and then activating certain hypothalamic circuits in the brain without brain or systemic uptake. In subjects receiving itruvone treatment for major depressive disorder, ETA is administered to the olfactory epithelium as described in Example 4. […] Cognitive function and psychomotor performance improve in this group of subjects. Because itruvone also is administered to the olfactory epithelium in the form of a spray or aerosol, ETA and itruvone may be administered separately, but proximate in time, or co-formulated for simultaneous intranasal administration.
# healthy male volunteers [8] = conditions: in vivo
# [9] = biological target: rat glucocorticoid receptor (Rattus norvegicus, UniProt P06536); experiment: In vitro agonist/antagonist activity on steroid receptors; assay type: biochemical
# Chain of rat glucocorticoid receptor (P06536 whole entry): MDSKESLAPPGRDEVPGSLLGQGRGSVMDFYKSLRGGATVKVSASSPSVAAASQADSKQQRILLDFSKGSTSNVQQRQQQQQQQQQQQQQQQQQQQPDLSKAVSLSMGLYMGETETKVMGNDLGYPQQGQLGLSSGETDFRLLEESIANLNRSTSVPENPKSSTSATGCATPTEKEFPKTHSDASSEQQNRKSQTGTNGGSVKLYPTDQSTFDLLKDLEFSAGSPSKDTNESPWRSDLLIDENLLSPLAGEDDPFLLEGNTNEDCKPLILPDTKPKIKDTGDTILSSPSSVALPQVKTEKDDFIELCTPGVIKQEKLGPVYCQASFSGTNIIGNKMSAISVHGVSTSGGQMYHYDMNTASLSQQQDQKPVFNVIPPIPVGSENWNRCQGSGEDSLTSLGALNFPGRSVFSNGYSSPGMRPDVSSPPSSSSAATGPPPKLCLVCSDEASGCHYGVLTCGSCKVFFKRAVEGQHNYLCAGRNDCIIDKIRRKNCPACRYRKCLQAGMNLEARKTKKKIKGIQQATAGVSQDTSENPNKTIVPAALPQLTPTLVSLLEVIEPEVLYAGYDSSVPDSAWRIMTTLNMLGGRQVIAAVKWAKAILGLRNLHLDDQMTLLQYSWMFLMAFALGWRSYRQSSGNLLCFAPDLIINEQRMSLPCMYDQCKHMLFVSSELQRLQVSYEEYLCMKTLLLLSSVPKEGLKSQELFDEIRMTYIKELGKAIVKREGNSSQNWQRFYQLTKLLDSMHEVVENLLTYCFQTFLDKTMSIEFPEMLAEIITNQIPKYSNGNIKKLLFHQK
# [10] = system: subjects with peripartum depression; experiment: ETA in peripartum depression (Example 10); assay type: in vivo, human; conditions: as in Example 4
# Protocol: In subjects experiencing decreased psychomotor and/or cognitive performance associated with peripartum depression, a therapeutically effective amount of ETA is administered to the olfactory epithelium as described in Example 4. ETA is administered separately from any other antidepressant therapy and is given sequentially or proximate in time to such other medications. Depressive scores reduce when the subjects are evaluated. Psychomotor and cognitive performance improve in this group of subjects.
# [11] = system: subjects with MDD or peripartum depression; experiment: ETA in mental fatigue associated with a depressive disorder (Example 7); assay type: in vivo, human; conditions: nasal as in Example 4
# Source text: as §1, with “a depressive disorder such as MDD or peripartum depression,” for “excessive daytime sleepiness,”, “nasally” for “intranasally”, “administered to the olfactory epithelium” for “administered”
# rat androgen receptor = rat androgen receptor (Rattus norvegicus, UniProt P15207); experiment: In vitro agonist/antagonist activity on steroid receptors; assay type: biochemical
# Chain of rat androgen receptor (P15207 whole entry S389L): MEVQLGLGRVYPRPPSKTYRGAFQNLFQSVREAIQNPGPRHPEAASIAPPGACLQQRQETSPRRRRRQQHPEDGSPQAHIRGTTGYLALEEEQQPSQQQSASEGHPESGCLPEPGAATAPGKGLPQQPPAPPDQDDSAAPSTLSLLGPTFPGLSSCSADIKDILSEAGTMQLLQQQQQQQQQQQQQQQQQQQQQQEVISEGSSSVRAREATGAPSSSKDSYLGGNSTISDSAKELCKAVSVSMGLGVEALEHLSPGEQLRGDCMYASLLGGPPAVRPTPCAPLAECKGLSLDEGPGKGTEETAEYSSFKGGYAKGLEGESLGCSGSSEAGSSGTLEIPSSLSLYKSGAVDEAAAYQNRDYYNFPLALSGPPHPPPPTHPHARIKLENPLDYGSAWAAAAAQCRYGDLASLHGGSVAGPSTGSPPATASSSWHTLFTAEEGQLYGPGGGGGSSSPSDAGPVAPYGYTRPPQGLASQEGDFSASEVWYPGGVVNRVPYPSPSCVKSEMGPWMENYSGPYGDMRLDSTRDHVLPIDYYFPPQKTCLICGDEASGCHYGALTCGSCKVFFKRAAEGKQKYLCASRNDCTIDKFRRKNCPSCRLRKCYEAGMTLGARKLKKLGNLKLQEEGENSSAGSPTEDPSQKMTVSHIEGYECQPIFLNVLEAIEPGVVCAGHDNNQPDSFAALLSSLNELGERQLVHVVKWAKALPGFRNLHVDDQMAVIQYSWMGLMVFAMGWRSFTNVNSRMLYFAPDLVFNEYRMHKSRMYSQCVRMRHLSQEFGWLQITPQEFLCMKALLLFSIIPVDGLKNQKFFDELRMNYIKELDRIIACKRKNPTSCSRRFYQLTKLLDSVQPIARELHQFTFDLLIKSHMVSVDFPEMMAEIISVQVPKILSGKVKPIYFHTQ
# [12] = system: healthy volunteers of both sexes; experiment: Pilot human trials, nasal administration
# [13] = system: subjects with mild cognitive impairment; experiment: ETA in mild cognitive impairment (Example 12); assay type: in vivo, human; conditions: intranasal as in Example 4
# Protocol: In subjects experiencing decreased psychomotor and/or cognitive performance associated with mild cognitive impairment, a therapeutically effective amount of ETA is administered intranasally as described in Example 4. Psychomotor and cognitive performance improve in this group of subjects.
# rat estrogen receptor = experiment: In vitro agonist/antagonist activity on steroid receptors; assay type: biochemical
# bone marrow = experiment: In vivo bone marrow micronucleus test
# vomeronasal organ = conditions: cited from earlier work
# healthy male volunteers [14] = experiment: Adverse events in the efficacy study in mentally fatigued men; conditions: ETA nasal spray 1600 ng per administration, all subjects
# [15] = Ames reverse mutation assay; assay type: cell-based
# [16] = system: subjects with shift work sleep disorder; experiment: ETA in mental fatigue associated with shift work sleep disorder (Example 5); assay type: in vivo, human; conditions: intranasal as in Example 4
# Source text: as §1, with “shift work sleep disorder,” for “excessive daytime sleepiness,”
# depressed patients = conditions: cited from earlier work
# [17] = at night during extended wakefulness; cited from earlier work
# mice = conditions: forced swim test in mice; imipramine, desipramine, fluoxetine, paroxetine, escitalopram, reboxetine; cited from earlier work
# US adults = conditions: caffeine intake; cited from earlier work
# [18] = adjunctive therapy for acute depressive episodes, unipolar and bipolar; cited from earlier work
# [19] = at certain dosages; cited from earlier work
# [20] = both men and women, more pronounced in men
smiles,measurement,setting,value
"CC(=O)Oc1ccc2c(c1)CC[C@@H]1[C@@H]2CC[C@]2(C)C=CC[C@@H]12 [ETA, 1,3,5(10),16-Estratetraen-3-yl acetate]",psychomotor and cognitive performance,subjects with ADHD,improve
same,Time Estimation test improvement,healthy male volunteers [1]; 3 a.m. test,significantly improved
same,Time Estimation test improvement relative to caffeine,"healthy male volunteers [1]; midnight and 3 a.m. tests, p<0.01",significantly improved
same,Time Estimation test improvement,healthy male volunteers [1]; midnight test,significantly improved
same,number of errors,healthy male volunteers [2]; isochronous stimuli,significantly decrease
same,variability in Reaction Time test,healthy male volunteers [2]; isochronous,less variability
same,effect on Reaction Time test compared with caffeine,"healthy male volunteers [2]; isochronous, p<0.001",significantly better than the effect of caffeine
same,number of errors,healthy male volunteers [2]; stochastic stimuli,significantly decrease
same,variability in Reaction Time test,healthy male volunteers [2]; stochastic,less variability
same,effect on Reaction Time test compared with caffeine,"healthy male volunteers [2]; stochastic, p<0.0001",significantly better than the effect of caffeine
same,electrotonic depolarization,[3],electrotonic depolarization
same,"mortality, adverse symptoms, changes in behavior","rats of both sexes; 1 mg/day intravenously, rats of both sexes, 7-day period","no mortality or adverse symptoms, or changes in behavior"
same,macroscopic or microscopic changes in organs,"rats of both sexes; rat, in vivo, iv",no macroscopic or microscopic changes
same,depressive scores,subjects with MDD,reduce beyond that of the escitalopram alone
same,psychomotor and cognitive performance,subjects with MDD,improve
same,psychomotor and cognitive performance,[4],improve
same,agonist or antagonist activity,rat progestin receptor,no agonist or antagonist activity
same,"mortality, adverse symptoms, changes in behavior",male rats,"no mortality or adverse symptoms, or changes in behavior"
same,time to improvement in psychomotor and cognitive performance,[5],≤ 15 min
same,time to initial physiological response,[5],within a minute
same,amplitude of the response,[6]; dependence on concentration,increased depending on the concentration of the compound
same,inward currents in the membrane,[6]; isolated human neurons,induced inward currents
same,cognitive function and psychomotor performance,[7],improve
same,depressive scores,[7],reduce beyond that of itruvone alone
same,serious adverse events,healthy male volunteers [8],no serious adverse events
same,agonist or antagonist activity,[9],no agonist or antagonist activity
same,depressive scores,[10],reduce
same,psychomotor and cognitive performance,[10],improve
same,psychomotor and cognitive performance,[11],improve
same,agonist or antagonist activity,rat androgen receptor,no agonist or antagonist activity
same,alpha frequency band of the electroencephalogram,[12]; intranasal administration,did not have significant effect
same,beta frequency band of the electroencephalogram,[12]; intranasal administration,did not have significant effect
same,body temperature,[12]; intranasal administration,did not have significant effect
same,duration of the QTc intervals of the electrocardiogram,[12]; intranasal administration,did not change
same,frequency of electrodermal activity events (skin conductance),[12]; intranasal administration,significantly increased
same,tolerability,"[12]; nasal administration, healthy volunteers",well tolerated
same,psychomotor and cognitive performance,[13],improve
same,agonist or antagonist activity,rat estrogen receptor,no agonist or antagonist activity
same,genotoxicity: mutagenic or clastogenic potential,bone marrow,no evidence of mutagenic or clastogenic potential
same,change in mass receptor potential (electrovomerogram),"vomeronasal organ; 60 pg dose to the vomeronasal organ, vs control (propylene glycol), men vs women",higher amplitude in men
same,skin temperature,"vomeronasal organ; both men and women, more pronounced in men (FIGS. 6G and 6H)",increase
same,electrovomerogram,vomeronasal organ; [20],increase
same,α-cortical activity,vomeronasal organ; [20],increase
same,skin temperature,"vomeronasal organ; men, vs control (FIG. 4C)",increase
same,integrated electrovomerogram,"vomeronasal organ; men, vs control",increase
same,skin resistance,"vomeronasal organ; men, vs control",decrease
same,electrodermal activity,vomeronasal organ; men,decrease
same,tolerability,healthy male volunteers [14],well tolerated
same,genotoxicity: mutagenic or clastogenic potential,[15],no evidence of mutagenic or clastogenic potential
same,psychomotor and cognitive performance,[16],improve
Cn1c(=O)c2c(ncn2C)n(C)c1=O [caffeine],Time Estimation test improvement,healthy male volunteers [1]; midnight test,statistically significant
same,number of errors,healthy male volunteers [2]; isochronous stimuli,significantly decrease
same,number of errors,healthy male volunteers [2]; stochastic stimuli,significantly decrease
same,depressive scores (antidepressant action),"depressed patients; chronic supplementation, 60 mg, subjects taking escitalopram",produced rapid antidepressant action by reduction of depressive scores
same,cognitive performance,"depressed patients; low doses, depressed patients",improved
same,reaction time and cognitive performance,[17],improved
same,antidepressant-like activity of six typical antidepressants,mice,enhancement
same,depression symptoms measured by the PHQ-9 test,US adults,reduces depression symptoms
NC(=O)C[S+]([O-])C(c1ccccc1)c1ccccc1 (stereo not shown) [modafinil],"overall depression scores, remission rates and fatigue",[18],improves
same,ADHD symptoms,[19],significantly improved
same,attention,[19],significantly improved
